Entries after “also recorded” stand apart in the source; their conditions may differ.
Tests used:
[1] = system: human liver TPMT; conditions: read-out: Apparent Km value for 6-MP; cited from earlier work
[2] = target: T1, human kidney TPMT (Homo sapiens, UniProt P51580); conditions: cited from earlier work
T1 construct: to assay the enzyme in human kidney preparations; host or cells: human kidney
T1 sequence (P51580 1-245): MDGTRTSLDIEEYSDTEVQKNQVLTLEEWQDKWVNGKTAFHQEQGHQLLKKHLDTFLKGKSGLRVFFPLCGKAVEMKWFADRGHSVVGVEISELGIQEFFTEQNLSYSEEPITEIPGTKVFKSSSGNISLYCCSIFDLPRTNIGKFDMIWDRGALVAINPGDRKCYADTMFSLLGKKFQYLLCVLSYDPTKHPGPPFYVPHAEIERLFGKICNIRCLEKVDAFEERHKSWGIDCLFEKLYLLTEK

[3] = system: patients with genetically low or undetectable RBC TPMT activity; conditions: patients lacking or with low TPMT activity; cited from earlier work
[4] = system: TPMT; conditions: cited from earlier work
[5] = target: T1, human kidney TPMT; conditions: cited from earlier work; remark: listed apart in the source
[6] = system: human liver TPMT; conditions: cited from earlier work
[7] = target: T1, human kidney TPMT; assay: DMHBA inhibition of TPMT activity, human kidney; format: biochemical; conditions: DMHBA 0.01 μM to 10 mM
Experimental: (§1) The University of Wisconsin Genetics Computer Group software package was used to analyze sequence information and to make comparisons between the sequence of the TPMT cDNA clone and the sequences of other cloned proteins. The GenBank Genetics Sequence Data Bank and the EMBL Nucleotide Sequence Database were used to search for nucleotide homologies, whereas the Swiss-Prot Protein Sequence Database was used to search for protein structural homologies. IC50 values were calculated with the GraphPAD Inplot program (GraphPAD, San Diego, Calif.).
Renal tissue was obtained either during autopsy or from patients undergoing clinically indicated nephrectomies. Hepatic tissue was obtained from patients who underwent clinically indicated partial hepatectomies for the removal of primary or metastatic hepatic tumors. All tissue was obtained under guidelines approved by the Mayo Clinic Institutional Review Board. Macroscopically normal tissue was stored at -80° C., conditions under which TPMT activity is stable (C. L. Szumlanski et al., Pharmacogenetics, 2, 148 (1992); J. A. Van Loon et al., Drug Met. Disposit., 18, 632 (1990)). […]
TPMT activity in renal tissue was measured by the method of R. M. Weinshilboum et al., in Clin. Chim. […]

[8] = target: T2, TPMT expressed in COS-1 cells transfected with T84 cell TPMT cDNA (Homo sapiens, UniProt P51580); assay: DMHBA inhibition of TPMT activity expressed in transfected COS-1 cells; format: biochemical; conditions: COS-1 cells transfected with cDNA clone; FIG. 6
T2 sequence (P51580 1-245): T1 sequence (P51580 1-245)
Experimental: as §1
(§2) TPMT activity in renal tissue was measured by the method of R. M. Weinshilboum et al., in Clin. Chim. Acta, 85, 323 (1978) as modified by L. C. Woodson et al., Biochem. Pharmacol., 32, 819 (1983) to assay the enzyme in human kidney preparations. […] Ado-Met as the methyl donor. Assay conditions for the measurement of TPMT in T84 human colon carcinoma cells and in COS-1 cells were identical with those used to measure the enzyme activity in human renal tissue. One unit of TPMT activity represented the formation of 1 nmol of 6-MMP per hr of incubation at 37° C.
Simian COS-1 cells were then plated in 100-mm dishes at a density of 1.5-1.8×10^6 cells/dish in DMEM with 10% fetal calf serum, and were allowed to grow overnight. Three dishes of cells were used for each transfection. […]

[9] = target: T3, T84 cell TPMT (Homo sapiens, UniProt P51580); assay: DMHBA inhibition of TPMT activity, T84 cells; format: biochemical; conditions: DMHBA 0.01 μM to 10 mM
T3 construct: Cytosol from T84 cells did contain TPMT enzymatic activity; host or cells: T84 human colon carcinoma cells
T3 sequence (P51580 1-245): T1 sequence (P51580 1-245)
Experimental: as §1, §2
T84 human colon carcinoma cells (American Type Culture Collection, Rockville, Md.) were grown to confluence in an equal volume mixture of Dulbecco's modified Eagle's medium (DMEM) and Ham's F12 media with 5% fetal calf serum. […]

[10] = tissue stored at -80° C.; cited from earlier work
[11] = substrate: Sc1ncnc2nc[nH]c12; assay: purified protein, by the assay type; conditions: other: T84 cells; 25 μM Ado-Met, 6-MP 0.11 to 6.8 mM; 37.0 °C
[12] = substrate: C[S+](CC[C@H](N)C(=O)O)C[C@H]1O[C@@H](n2cnc3c(N)ncnc32)[C@H](O)[C@@H]1O; assay: purified protein, by the assay type; conditions: other: T84 cells; 3.4 mM 6-MP, Ado-Met 0.78 to 25 μM; 37.0 °C
[13] = target: T3, T84 cell TPMT; assay: TPMT biochemical characteristics: pH optimum and apparent Km, T84 cells; conditions: 150 mM potassium phosphate buffer, seven pH values 5.5 to 8.5
Experimental: TPMT activity in renal tissue was measured by the method of R. M. Weinshilboum et al., in Clin. Chim. Acta, 85, 323 (1978) as modified by L. C. Woodson et al., Biochem. Pharmacol., 32, 819 (1983) to assay the enzyme in human kidney preparations. […] Assay conditions for the measurement of TPMT in T84 human colon carcinoma cells and in COS-1 cells were identical with those used to measure the enzyme activity in human renal tissue. One unit of TPMT activity represented the formation of 1 nmol of 6-MMP per hr of incubation at 37° C.

Sc1ncnc2nc[nH]c12 [6-MP, 6-mercaptopurine]
Km [1]: 580 µM
Km ([2]; read-out: Apparent Km value for 6-MP): 300 µM
risk of myelosuppression (in words) [3]: even more at risk for the occurrence of severe myelosuppression; also recorded: greatly increased risk for the development of life-threatening thiopurine-induced myelosuppression
substrate for TPMT (in words) [4]: substrates for TPMT

COc1cc(C(=O)O)cc(O)c1OC [DMHBA, 3,4-dimethoxy-5-hydroxybenzoic acid]
inhibition of human kidney TPMT activity (in words) [5]: known to be inhibited
inhibition of human liver TPMT activity (in words) [6]: known to be inhibited
IC50 ([6]; read-out: DMHBA IC50): 8.5 µM
IC50 [7]: 7.8 µM
IC50 value, TPMT activity expressed in COS-1 cells (in words) [8]: nearly identical to that of the TPMT present in T84 cells
IC50 [9]: 6.6 µM

B1: T84 cell TPMT (Homo sapiens) (protein)
chain: T1 sequence (P51580 1-245)
stability of TPMT activity (in words) [10]: stable
Km [11]: 0.71 mM
Km [12]: 5.1 µM
pH Optimum [13]: 6.5
pH Optimum [2]: 6.5
